Test results as given in article PMC7570544, “Biological Activities and ADMET-Related Properties of Novel Set of Cinnamanilides” (Molecules, 2020).
Values after ≈ are worked out from the molar mass of the structure shown.

How the values were obtained:
[1] = tested on: methicillin-resistant Staphylococcus aureus (MRSA) SA 630; experiment: In vitro antibacterial evaluation, broth microdilution MIC, MRSA isolate SA 630; type: cell-based; settings: clinical isolate MRSA SA 630
[2] = tested on: methicillin-resistant Staphylococcus aureus (MRSA) 63718; experiment: In vitro antibacterial evaluation, broth microdilution MIC, MRSA isolate 63718; type: cell-based; settings: clinical isolate MRSA 63718
[3] = tested on: THP1-Blue™ NF-κB cell line; experiment: In vitro cell viability assay (WST-1); type: cell-based; settings: Homo sapiens; THP1-Blue NF-κB cells, 24 h incubation, WST-1, mean ± SEM, n = 6; read-out: Tox IC50 ± SEM
Method: The cytotoxic effect of the tested compounds was specified on THP1-Blue™ NF-κB cell line (Invivogen; San Diego, CA, USA), as described previously. […] The final concentration of DMSO was 0.1% (v/v) in each well. The viability analysis was performed after 24 h incubation with the tested substances using the WST-1 Cell Proliferation Reagent kit (Roche Diagnostics, Basel, Switzerland) according to the manufacturer’s manual. […] The IC50 values were calculated by four-parameter logistic (4PL) analysis from obtained viability curves by GraphPad Prism 8.0.1 (San Diego, CA, USA) software.

[4] = tested on: Staphylococcus aureus ATCC 29213; experiment: In vitro antibacterial evaluation, broth microdilution MIC, reference strain; type: cell-based; settings: Staphylococcus aureus, ATCC29213; S. aureus ATCC 29213
[5] = tested on: Mycobacterium tuberculosis H37Ra/ATCC 25177; experiment: In vitro antimycobacterial evaluation; type: cell-based; settings: M. tuberculosis H37Ra
Source text: Isoniazid (Sigma) was used as the standard.

[6] = Lipophilicity determination by RP-TLC; type: physicochemical; parameters: key to RM (MeOH:H2O): RM = log(1/RF - 1), from RP-18 TLC; settings: for RM (MeOH:H2O): 72:28 MeOH:H2O; for RM (pH 7.4): 72:28 MeOH:NaOAc buffer (pH 7.4)
Method: RM values were determined from the RP-18 TLC measurements. […] The volatiles were carefully evaporated, and the plate was developed by MeOH (100%) or MeOH: H2O-HPLC (72:28 v/v) or MeOH: NaOAc buffer, pH 7.4 (72:28 v/v). After drying, the spots were visualized under UV (λ = 365 nm). RM data were obtained from equation: RM = log(1/RF-1). Each experiment was repeated three times.

[7] = RP-HPLC, 72:28 MeOH:H2O

**Q.** For CC1(C)S[C@@H]2[C@H](NC(=O)[C@H](N)c3ccccc3)C(=O)N2[C@H]1C(=O)O [AMP, ampicillin, reference compound], which MIC [1] is on record?
**A.** 45.8 µM (≈ 16 µg/mL)

**Q.** What about the MIC [2] of the same compound?
**A.** 45.8 µM (≈ 16 µg/mL)

**Q.** With O=C(/C=C/c1ccccc1)Nc1cc(F)c(F)c(F)c1 [Compound 3, (2E)-3-Phenyl-N-(3,4,5-trifluorophenyl)prop-2-enamide] as the compound, how does the MIC [1] read?
**A.** > 924 µM

**Q.** And the IC50 [3]?
**A.** > 20 µM

**Q.** And the MIC [4]?
**A.** 462 µM (≈ 128 µg/mL)

**Q.** What about the MIC [5] of the same compound?
**A.** > 462 µM

**Q.** And the “RM (MeOH:H2O)” value [6]?
**A.** 0.6074

**Q.** And the “RM (pH 7.4)” value [6]?
**A.** 0.5495

**Q.** What about the “RM (100% MeOH)” value [6] of the same compound?
**A.** −0.4206

**Q.** And the Logk [7]?
**A.** 0.4893

**Q.** What about the chromatographic logD (physchem; pH 6.5) of the same compound?
**A.** 0.527

**Q.** And the chromatographic logD (physchem; pH 7.4)?
**A.** 0.549

**Q.** What about the MIC [2] of the same compound?
**A.** > 924 µM

**Q.** Which MIC [1] does the source give for O=C(/C=C/c1ccccc1)Nc1cc(Cl)c(Cl)c(Cl)c1 [Compound 6, (2E)-3-Phenyl-N-(3,4,5-trichlorophenyl)prop-2-enamide] here?
**A.** > 790 µM

**Q.** And the IC50 [3]?
**A.** > 20 µM

**Q.** And the MIC [4]?
**A.** > 790 µM

**Q.** What about the MIC [5] of the same compound?
**A.** > 395 µM

**Q.** And the “RM (MeOH:H2O)” value [6]?
**A.** 1.0852

**Q.** And the “RM (pH 7.4)” value [6]?
**A.** 1.1306

**Q.** And the “RM (100% MeOH)” value [6]?
**A.** −0.1870

**Q.** What about the Logk [7] of the same compound?
**A.** 0.9671

**Q.** And the chromatographic logD (physchem; pH 6.5)?
**A.** 0.99

**Q.** And the chromatographic logD (physchem; pH 7.4)?
**A.** 1.01

**Q.** What about the MIC [2] of the same compound?
**A.** > 790 µM

**Q.** Which MIC [1] does the source give for O=C(/C=C/c1ccccc1)Nc1ccc(Br)cc1Br [Compound 7, (2E)-N-(2,4-Dibromophenyl)-3-phenylprop-2-enamide] here?
**A.** > 677 µM

**Q.** And the IC50 [3]?
**A.** > 20 µM

**Q.** What about the MIC [4] of the same compound?
**A.** > 677 µM

**Q.** And the MIC [5]?
**A.** > 339 µM

**Q.** And the “RM (MeOH:H2O)” value [6]?
**A.** 0.7331

**Q.** And the “RM (pH 7.4)” value [6]?
**A.** 0.7295

**Q.** What about the “RM (100% MeOH)” value [6] of the same compound?
**A.** −0.3098

**Q.** And the Logk [7]?
**A.** 0.6152

**Q.** And the chromatographic logD (physchem; pH 6.5)?
**A.** 0.652

**Q.** What about the chromatographic logD (physchem; pH 7.4) of the same compound?
**A.** 0.67

**Q.** What about the MIC [2] of the same compound?
**A.** > 677 µM

**Q.** Which results are given for O=C(/C=C/c1ccccc1)Nc1cc(Cl)ccc1F [Compound 8, (2E)-N-(5-Chloro-2-fluorophenyl)-3-phenylprop-2-enamide]?
**A.** MIC [1]: > 931 µM; IC50 [3]: > 20 µM; MIC [4]: 931 µM (≈ 257 µg/mL); MIC [5]: > 465 µM; RM (MeOH:H2O) [6]: 0.5411; RM (pH 7.4) [6]: 0.5495; RM (100% MeOH) [6]: −0.4711; Logk [7]: 0.3692; chromatographic logD (physchem; pH 6.5): 0.415; chromatographic logD (physchem; pH 7.4): 0.433; MIC [2]: > 931 µM

**Q.** With O=C(/C=C/c1ccccc1)Nc1ccc(Br)c(F)c1 [Compound 9, (2E)-N-(4-Bromo-3-fluorophenyl)-3-phenylprop-2-enamide] as the compound, how does the MIC [1] read?
**A.** 805 µM (≈ 258 µg/mL)

**Q.** What about the IC50 [3] of the same compound?
**A.** > 20 µM

**Q.** And the MIC [4]?
**A.** > 805 µM

**Q.** What about the MIC [5] of the same compound?
**A.** > 403 µM

**Q.** And the “RM (MeOH:H2O)” value [6]?
**A.** 0.6797

**Q.** What about the “RM (pH 7.4)” value [6] of the same compound?
**A.** 0.6895

**Q.** What about the “RM (100% MeOH)” value [6] of the same compound?
**A.** −0.4081

**Q.** What about the Logk [7] of the same compound?
**A.** 0.5025

**Q.** What about the chromatographic logD (physchem; pH 6.5) of the same compound?
**A.** 0.541

**Q.** And the chromatographic logD (physchem; pH 7.4)?
**A.** 0.56

**Q.** What about the MIC [2] of the same compound?
**A.** > 805 µM

**Q.** For O=C(/C=C/c1ccccc1)Nc1ccc(Br)c(Cl)c1 [Compound 11, (2E)-N-(4-Bromo-3-chlorophenyl)-3-phenylprop-2-enamide], which MIC [1] is on record?
**A.** 192 µM (≈ 64.6 µg/mL)

**Q.** And the IC50 [3]?
**A.** 6.5 ± 1 µM

**Q.** What about the MIC [4] of the same compound?
**A.** > 766 µM

**Q.** And the MIC [5]?
**A.** > 383 µM

**Q.** What about the “RM (MeOH:H2O)” value [6] of the same compound?
**A.** 0.8388

**Q.** And the “RM (pH 7.4)” value [6]?
**A.** 0.8181

**Q.** And the “RM (100% MeOH)” value [6]?
**A.** −0.3376

**Q.** And the Logk [7]?
**A.** 0.6611

**Q.** And the chromatographic logD (physchem; pH 6.5)?
**A.** 0.691

**Q.** And the chromatographic logD (physchem; pH 7.4)?
**A.** 0.713

**Q.** What about the MIC [2] of the same compound?
**A.** 192 µM (≈ 64.6 µg/mL)

**Q.** For O=C(/C=C/c1ccccc1)Nc1ccc(Cl)cc1Br [Compound 12, (2E)-N-(2-Bromo-4-chlorophenyl)-3-phenylprop-2-enamide], which MIC [1] is on record?
**A.** > 766 µM

**Q.** And the IC50 [3]?
**A.** > 20 µM

**Q.** And the MIC [4]?
**A.** > 766 µM

**Q.** And the MIC [5]?
**A.** > 383 µM

**Q.** And the “RM (MeOH:H2O)” value [6]?
**A.** 0.6553

**Q.** And the “RM (pH 7.4)” value [6]?
**A.** 0.6484

**Q.** And the “RM (100% MeOH)” value [6]?
**A.** −0.4072

**Q.** And the Logk [7]?
**A.** 0.5476

**Q.** What about the chromatographic logD (physchem; pH 6.5) of the same compound?
**A.** 0.586

**Q.** What about the chromatographic logD (physchem; pH 7.4) of the same compound?
**A.** 0.606

**Q.** What about the MIC [2] of the same compound?
**A.** > 766 µM

**Q.** With O=C(/C=C/c1ccccc1)Nc1ccc(Cl)cc1C(F)(F)F [Compound 15, (2E)-N-[4-Chloro-2-(trifluoromethyl)phenyl]-3-phenylprop-2-enamide] as the compound, how does the MIC [1] read?
**A.** > 788 µM

**Q.** And the IC50 [3]?
**A.** > 20 µM

**Q.** What about the MIC [4] of the same compound?
**A.** > 788 µM

**Q.** What about the MIC [5] of the same compound?
**A.** > 394 µM

**Q.** What about the “RM (MeOH:H2O)” value [6] of the same compound?
**A.** 0.5305

**Q.** And the “RM (pH 7.4)” value [6]?
**A.** 0.3219

**Q.** What about the “RM (100% MeOH)” value [6] of the same compound?
**A.** −0.6102

**Q.** And the Logk [7]?
**A.** 0.4113

**Q.** What about the chromatographic logD (physchem; pH 6.5) of the same compound?
**A.** 0.454

**Q.** What about the chromatographic logD (physchem; pH 7.4) of the same compound?
**A.** 0.474

**Q.** And the MIC [2]?
**A.** > 788 µM

**Q.** For NNC(=O)c1ccncc1 [INH, isoniazid, reference compound], which MIC [5] is on record?
**A.** 36.6 µM (≈ 5.02 µg/mL)
